Reference: patent EP0000816A1, “Substituted amino-pyridine derivatives, processes for their preparation and pharmaceutical compositions containing them” (BEECHAM GROUP PLC, priority 1977, dated 1979)

Tested on: male albino rats (C.F.Y. strain)
Experiment: Hypolipidaemic assay: serum total cholesterol and triglyceride in rats given compound in diet
Type: in vivo
Conditions: 0.1% in diet for seven days; for % Cholesterol Lowering: serum total cholesterol compared with controls; for % Triglyceride Lowering: serum triglyceride compared with controls
Protocol: Groups of 8 male albino rats (C.F.Y. strain), weighing approximately 150 g., were given a powdered commercially available diet (oxoid) to which compounds were added at level of 0.1%. These diets were fed for seven days. The rats were then killed and their serum total cholesterol and triglyceride were measured by the Technicon Autoanalyser.

SMILES | % Cholesterol Lowering [%] | % Triglyceride Lowering [%]
O=C(O)c1ccc(NCc2ccccc2)nc1 | 34 | 30
O=C(O)c1ccc(NCCCc2ccccc2)nc1 | 16 | 38
